# Measurements reported in US20260232821A1, “ALBUMIN CONJUGATE, METHOD FOR PRODUCING SAME, AND COMPOSITION FOR TARGETING, DIAGNOSING, OR TREATING CANCER COMPRISING SAME” (KYTECBIO CO., LTD., priority 2023, published 2026).
# Key:
# albumin (HSA) = albumin (HSA) (Homo sapiens, UniProt P02768); test: Binding ability evaluation: dissociation constant from fluorescence change with increasing albumin; conditions: 100 nM boron-containing compound, 95 vol % PBS buffer and 5 vol % DMSO, stirred 2 hours, fluorescence at 530 nm
# Sequence of albumin (HSA) (P02768 25-609): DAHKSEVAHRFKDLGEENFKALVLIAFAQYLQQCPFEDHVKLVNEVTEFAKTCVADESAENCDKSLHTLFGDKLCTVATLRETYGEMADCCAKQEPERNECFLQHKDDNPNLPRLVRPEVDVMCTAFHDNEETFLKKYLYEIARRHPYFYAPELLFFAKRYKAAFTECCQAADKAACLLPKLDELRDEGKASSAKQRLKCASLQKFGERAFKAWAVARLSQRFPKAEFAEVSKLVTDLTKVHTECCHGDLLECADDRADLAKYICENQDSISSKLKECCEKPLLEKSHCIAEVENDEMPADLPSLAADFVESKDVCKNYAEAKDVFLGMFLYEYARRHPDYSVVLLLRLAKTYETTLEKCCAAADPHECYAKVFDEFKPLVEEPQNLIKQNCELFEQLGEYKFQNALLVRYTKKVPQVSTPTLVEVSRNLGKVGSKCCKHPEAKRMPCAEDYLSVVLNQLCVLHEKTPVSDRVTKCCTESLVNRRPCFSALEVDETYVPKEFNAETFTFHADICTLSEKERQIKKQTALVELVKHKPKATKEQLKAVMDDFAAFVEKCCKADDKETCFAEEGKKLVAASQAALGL
# Procedure: 100 nM boron-containing compound B1 and albumin (HSA) were mixed in 95 vol % PBS buffer and 5 vol % dimethyl sulfoxide (DMSO) and stirred for 2 hours. The change in fluorescence intensity (F.I.) was measured while increasing the concentration of the albumin, and the dissociation constant (Kd) calculated based thereon is shown in FIG. 2.
# For example, 0:1 represents the case where 100 nM albumin (HSA) was used without using a boron-containing compound, 1:0 represents the case where 100 nM boron-containing compound B1 was used and no albumin (HSA) was used, 1:2 represents the case where 100 nM boron-containing compound B1 and 200 nM albumin (HSA) were used, and 1:16 represents the case where 100 nM boron-containing compound B1 and 1600 nM albumin (HSA) were used.
# The dissociation constants (Kd) of boron-containing compounds B2 to B5 were calculated in the same method as used to produce boron-containing compound B1.
# [1] = Evaluation of ROS production according to lysine concentration; conditions: 10 μM compound with about 1.0 mM monomeric lysine, PBS pH 7.4, light of about 530 nm
# Procedure: • i) 1.0 mM lysine (hereinafter, Lys) was mixed in PBS buffer solution (pH 7.4) and irradiated with light of about 530 nm. The fluorescence generated over time was measured using a Scinco FS-2, and results thereof are shown in FIG. 7A. • ii) The result of mixing 10 μM boron-containing compound B3 instead of the 1.0 mM lysine (Lys) is shown in FIG. 7B, iii) the result of mixing 10 μM boron-containing compound B3 and 0.1 mM lysine (Lys) instead of the 1.0 mM lysine (Lys) is shown in FIG. 7C, and iv) the result of mixing 10 μM boron-containing compound B3 and 1.0 mM lysine (Lys) instead of the 1.0 mM lysine (Lys) is shown in FIG. 7D.
Kd (albumin (HSA)),SMILES,reactive oxygen species generated when mixed with lysine [1]
2.22 µM,O=C(c1ccccc1)c1ccccc1NCc1ccccc1B(O)O [B4],–
0.185 µM,O=Cc1ccccc1NCc1ccccc1B(O)O [B1],–
0.571 µM,O=Cc1cc2c(cc1NCc1ccccc1B(O)O)OCO2 [B5],–
0.383 µM,O=Cc1cc(Br)ccc1NCc1ccccc1B(O)O [B2],–
2.48 µM,O=Cc1cc2ccccc2cc1NCc1ccccc1B(O)O [B3],relatively large amount of reactive oxygen species is generated
